Data: PubChem BioAssay (NCI)
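Cultured in 96-well plates, cells were exposed to test compound for 48 hours across five concentrations. TGI marks complete inhibition of growth.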

How the values were obtained:
Assay in all cases: NCI-60 cell line screen, 48 h
SF-539 CNS = test system: SF-539 CNS
HOP-92 NSCLC = test system: HOP-92 NSCLC
K-562 leukemia = test system: K-562 leukemia
DU-145 prostate = test system: DU-145 prostate
MDA-N = test system: MDA-N
SW-620 colon = test system: SW-620 colon
HCC-2998 colon = test system: HCC-2998 colon
IGROV1 ovarian = test system: IGROV1 ovarian
CAKI-1 renal = test system: CAKI-1 renal
NCI-H226 lung = test system: NCI-H226 lung
786-0 renal = test system: 786-0 renal
A549 NSCLC = test system: A549 NSCLC
NCI/ADR-RES ovarian = test system: NCI/ADR-RES ovarian
MALME-3M melanoma = test system: MALME-3M melanoma
SK-MEL-2 melanoma = test system: SK-MEL-2 melanoma
SF-295 CNS = test system: SF-295 CNS
HOP-62 NSCLC = test system: HOP-62 NSCLC
SK-MEL-28 melanoma = test system: SK-MEL-28 melanoma
KM12 colon = test system: KM12 colon
SK-OV-3 ovarian = test system: SK-OV-3 ovarian
HCT-15 colon = test system: HCT-15 colon
NCI-H460 lung = test system: NCI-H460 lung
EKVX NSCLC = test system: EKVX NSCLC
UO-31 renal = test system: UO-31 renal
LOX IMVI melanoma = test system: LOX IMVI melanoma
SNB-19 CNS = test system: SNB-19 CNS
RPMI-8226 leukemia = test system: RPMI-8226 leukemia
PC-3 prostate = test system: PC-3 prostate
UACC-62 melanoma = test system: UACC-62 melanoma
NCI-H23 lung = test system: NCI-H23 lung
CCRF-CEM leukemia = test system: CCRF-CEM leukemia
HT29 colon = test system: HT29 colon
MDA-MB-435 = test system: MDA-MB-435
SNB-75 CNS = test system: SNB-75 CNS
OVCAR-5 ovarian = test system: OVCAR-5 ovarian
SN12C renal = test system: SN12C renal
HCT-116 colon = test system: HCT-116 colon
U251 CNS = test system: U251 CNS
MOLT-4 leukemia = test system: MOLT-4 leukemia
TK-10 renal = test system: TK-10 renal
MCF7 breast = test system: MCF7 breast
OVCAR-3 ovarian = test system: OVCAR-3 ovarian
UACC-257 melanoma = test system: UACC-257 melanoma
SF-268 CNS = test system: SF-268 CNS
T-47D breast = test system: T-47D breast
OVCAR-8 ovarian = test system: OVCAR-8 ovarian
COLO 205 colon = test system: COLO 205 colon
OVCAR-4 ovarian = test system: OVCAR-4 ovarian
RXF 393 renal = test system: RXF 393 renal
MDA-MB-231 breast = test system: MDA-MB-231 breast
HL-60(TB) leukemia = test system: HL-60(TB) leukemia
ACHN renal = test system: ACHN renal
SK-MEL-5 melanoma = test system: SK-MEL-5 melanoma
SR leukemia = test system: SR leukemia
HS 578T breast = test system: HS 578T breast
M14 melanoma = test system: M14 melanoma
A498 renal = test system: A498 renal
NCI-H522 lung = test system: NCI-H522 lung

Q: How did the TGI (SF-539 CNS) turn out when `Nc1nc2c(ncn2C2C=CC(COS(N)(=O)=O)C2)c(=O)[nH]1` (stereo not given) was run?
A: > 100 µM

Q: And the TGI (HOP-92 NSCLC)?
A: > 100 µM

Q: What about the TGI (K-562 leukemia) of the same compound?
A: > 100 µM

Q: What about the TGI (DU-145 prostate) of the same compound?
A: > 100 µM

Q: And the TGI (MDA-N)?
A: > 100 µM

Q: And the TGI (SW-620 colon)?
A: > 100 µM

Q: And the TGI (HCC-2998 colon)?
A: > 100 µM

Q: What about the TGI (IGROV1 ovarian) of the same compound?
A: > 100 µM

Q: And the TGI (CAKI-1 renal)?
A: > 100 µM

Q: What about the TGI (NCI-H226 lung) of the same compound?
A: > 100 µM

Q: What about the TGI (786-0 renal) of the same compound?
A: > 100 µM

Q: What about the TGI (A549 NSCLC) of the same compound?
A: > 100 µM

Q: What about the TGI (NCI/ADR-RES ovarian) of the same compound?
A: > 100 µM

Q: What about the TGI (MALME-3M melanoma) of the same compound?
A: > 100 µM

Q: And the TGI (SK-MEL-2 melanoma)?
A: > 100 µM

Q: What about the TGI (SF-295 CNS) of the same compound?
A: > 100 µM

Q: What about the TGI (HOP-62 NSCLC) of the same compound?
A: > 100 µM

Q: And the TGI (SK-MEL-28 melanoma)?
A: > 100 µM

Q: And the TGI (KM12 colon)?
A: > 100 µM

Q: And the TGI (SK-OV-3 ovarian)?
A: > 100 µM

Q: What about the TGI (HCT-15 colon) of the same compound?
A: > 100 µM

Q: And the TGI (NCI-H460 lung)?
A: > 100 µM

Q: And the TGI (EKVX NSCLC)?
A: > 100 µM

Q: What about the TGI (UO-31 renal) of the same compound?
A: > 100 µM

Q: What about the TGI (LOX IMVI melanoma) of the same compound?
A: > 100 µM

Q: And the TGI (SNB-19 CNS)?
A: > 100 µM

Q: What about the TGI (RPMI-8226 leukemia) of the same compound?
A: > 100 µM

Q: What about the TGI (PC-3 prostate) of the same compound?
A: > 100 µM

Q: What about the TGI (UACC-62 melanoma) of the same compound?
A: > 100 µM

Q: And the TGI (NCI-H23 lung)?
A: > 100 µM

Q: And the TGI (CCRF-CEM leukemia)?
A: > 100 µM

Q: And the TGI (HT29 colon)?
A: > 100 µM

Q: What about the TGI (MDA-MB-435) of the same compound?
A: > 100 µM

Q: What about the TGI (SNB-75 CNS) of the same compound?
A: > 100 µM

Q: What about the TGI (OVCAR-5 ovarian) of the same compound?
A: > 100 µM

Q: And the TGI (SN12C renal)?
A: > 100 µM

Q: What about the TGI (HCT-116 colon) of the same compound?
A: > 100 µM

Q: And the TGI (U251 CNS)?
A: > 100 µM

Q: What about the TGI (MOLT-4 leukemia) of the same compound?
A: > 100 µM

Q: And the TGI (TK-10 renal)?
A: > 100 µM

Q: What about the TGI (MCF7 breast) of the same compound?
A: > 100 µM

Q: And the TGI (OVCAR-3 ovarian)?
A: > 100 µM

Q: And the TGI (UACC-257 melanoma)?
A: > 100 µM

Q: And the TGI (SF-268 CNS)?
A: > 100 µM

Q: And the TGI (T-47D breast)?
A: > 100 µM

Q: And the TGI (OVCAR-8 ovarian)?
A: > 100 µM

Q: What about the TGI (COLO 205 colon) of the same compound?
A: > 100 µM

Q: And the TGI (OVCAR-4 ovarian)?
A: > 100 µM

Q: And the TGI (RXF 393 renal)?
A: > 100 µM

Q: And the TGI (MDA-MB-231 breast)?
A: > 100 µM

Q: And the TGI (HL-60(TB) leukemia)?
A: > 100 µM

Q: What about the TGI (ACHN renal) of the same compound?
A: > 100 µM

Q: What about the TGI (SK-MEL-5 melanoma) of the same compound?
A: > 100 µM

Q: And the TGI (SR leukemia)?
A: > 100 µM

Q: What about the TGI (HS 578T breast) of the same compound?
A: > 100 µM

Q: What about the TGI (M14 melanoma) of the same compound?
A: > 100 µM

Q: How did the TGI (SF-539 CNS) turn out when `CCOC(=O)c1c(SCCCN2CCCCC2)n(-c2ccccc2)c(=S)n(-c2ccccc2)c1=O` was run?
A: 27.9 µM

Q: And the TGI (HOP-92 NSCLC)?
A: 29.1 µM

Q: What about the TGI (K-562 leukemia) of the same compound?
A: 41.3 µM

Q: What about the TGI (DU-145 prostate) of the same compound?
A: 29.9 µM

Q: And the TGI (MDA-N)?
A: 28.5 µM

Q: What about the TGI (SW-620 colon) of the same compound?
A: 35.4 µM

Q: What about the TGI (HCC-2998 colon) of the same compound?
A: 31.1 µM

Q: What about the TGI (NCI-H226 lung) of the same compound?
A: 34 µM

Q: What about the TGI (786-0 renal) of the same compound?
A: 13.5 µM

Q: What about the TGI (A549 NSCLC) of the same compound?
A: 33.9 µM

Q: What about the TGI (MALME-3M melanoma) of the same compound?
A: 29.8 µM

Q: What about the TGI (SK-MEL-2 melanoma) of the same compound?
A: 30.9 µM

Q: And the TGI (HOP-62 NSCLC)?
A: > 100 µM

Q: What about the TGI (SK-MEL-28 melanoma) of the same compound?
A: 31.9 µM

Q: And the TGI (KM12 colon)?
A: 34 µM

Q: What about the TGI (HCT-15 colon) of the same compound?
A: 33.2 µM

Q: What about the TGI (EKVX NSCLC) of the same compound?
A: 91.8 µM

Q: And the TGI (UO-31 renal)?
A: 29.1 µM

Q: And the TGI (SNB-19 CNS)?
A: 31.4 µM

Q: And the TGI (RPMI-8226 leukemia)?
A: > 100 µM

Q: And the TGI (PC-3 prostate)?
A: 30 µM

Q: And the TGI (UACC-62 melanoma)?
A: 25.2 µM

Q: And the TGI (A498 renal)?
A: 35.6 µM

Q: And the TGI (NCI-H23 lung)?
A: 33.9 µM

Q: And the TGI (CCRF-CEM leukemia)?
A: 49.3 µM

Q: And the TGI (HT29 colon)?
A: 37.5 µM

Q: And the TGI (MDA-MB-435)?
A: 29.7 µM

Q: And the TGI (OVCAR-5 ovarian)?
A: 34.2 µM

Q: What about the TGI (SN12C renal) of the same compound?
A: 29.7 µM

Q: And the TGI (HCT-116 colon)?
A: 24.8 µM

Q: What about the TGI (U251 CNS) of the same compound?
A: 30.5 µM

Q: What about the TGI (MOLT-4 leukemia) of the same compound?
A: 35 µM

Q: And the TGI (TK-10 renal)?
A: 34.8 µM

Q: What about the TGI (MCF7 breast) of the same compound?
A: 37.6 µM

Q: What about the TGI (OVCAR-3 ovarian) of the same compound?
A: 30.4 µM

Q: And the TGI (SF-268 CNS)?
A: > 100 µM

Q: What about the TGI (T-47D breast) of the same compound?
A: 32.6 µM

Q: What about the TGI (OVCAR-8 ovarian) of the same compound?
A: 33.6 µM

Q: What about the TGI (COLO 205 colon) of the same compound?
A: 32 µM

Q: And the TGI (OVCAR-4 ovarian)?
A: 31.5 µM

Q: What about the TGI (RXF 393 renal) of the same compound?
A: 32.2 µM

Q: What about the TGI (MDA-MB-231 breast) of the same compound?
A: 46.1 µM

Q: And the TGI (HL-60(TB) leukemia)?
A: 7.69 µM

Q: What about the TGI (ACHN renal) of the same compound?
A: 44.7 µM

Q: And the TGI (SK-MEL-5 melanoma)?
A: 30.1 µM

Q: And the TGI (SR leukemia)?
A: 67 µM

Q: What about the TGI (NCI-H522 lung) of the same compound?
A: 34.9 µM

Q: And the TGI (HS 578T breast)?
A: 46.5 µM

Q: And the TGI (M14 melanoma)?
A: 31.9 µM
